Source: patent US20100204130A1, “USE OF HUMAN NEUROPEPTIDE AS A THERAPEUTIC AGENT” (priority 2007, published 2010)
Where a SMILES comes first, the peptide text is derived from it.

Columns and labels:
HIV-1IIIB = test: HIV-1 antiviral assay (CPE reduction, MTS); format: cell-based; settings: peptide 10 micrograms per ml, 6 days post-infection
[1] = test system: hepatitis B virus (HBV) ayw strain; test: HBV replication assay in HepG2-2.2.15 cells (TaqMan PCR of secreted HBV DNA); format: cell-based; settings: test peptide 10 micrograms per ml, six days, HBV DNA by TaqMan PCR
[2] = Cytotoxicity in HBV assay (dye uptake cell viability); format: cell-based; settings: human, HepG2-2.2.15 cells, test peptide 10 micrograms per ml
HCMV strain AD169 = test: HCMV plaque reduction assay in MRC-5 cells; format: cell-based; settings: HCMV AD169 in MRC-5 cells; peptide 10 micrograms per ml; 7-10 days
From the text: Ganciclovir was used as positive control.

MRSA = test: Methicillin Resistant Staphylococcus Aureus (MRSA) assay; format: cell-based; settings: MRSA growth; peptide 10 micrograms per ml; read visually
Pseudomonas aeruginosa = Pseudomonas aeruginosa assay; format: cell-based; settings: Pseudomonas aeruginosa growth; peptide 10 micrograms per ml; read visually
Streptococcus pneumoniae = Streptococcus pneumoniae assay; format: cell-based; settings: Streptococcus pneumoniae growth; peptide 10 micrograms per ml; read visually
A549 cells = test: Propidium iodide cell cycle assay; format: cell-based, human; settings: test peptide 10 micrograms per ml, 24 hours, FACS
From the text: Human A549 cells (carcinomic human alveolar basal epithelial cells) were utilized in the experiments employing the Propidium iodide cell cycle assay. The eukaryotic cell cycle is a series of events that take place in a cell leading to its replication. The regulation of the cell cycle involves steps crucial to the cell, including detecting and repairing genetic damage, and provision of various checks to prevent uncontrolled cell division. The molecular events that control the cell cycle are ordered and directional; that is, each process occurs in a sequential fashion. The cell cycle consists of four distinct phases: G1 phase, S phase, G2 phase (collectively known as interphase) and M phase. M phase is itself composed of two tightly coupled processes: mitosis, in which the cell's chromosomes are divided between the two daughter cells, and cytokinesis, in which the cell's cytoplasm divides forming distinct cells. Activation of each phase is dependent on the proper progression and completion of the previous one. Cells that have temporarily or reversibly stopped dividing are said to have entered a state of quiescence called Go phase. The relatively brief M phase consists of nuclear division and cytoplasmic division. The first phase within interphase, from the end of the previous M phase till the beginning of DNA synthesis is called G1 (G indicating gap or growth). During this phase the biosynthetic activities of the cell resume at a high rate. This phase is marked by synthesis of various enzymes that are required in S phase, mainly those needed for DNA replication. The ensuing S phase starts when DNA synthesis commences; when it is complete, all of the chromosomes have been replicated. The cell then enters the G2 phase, which lasts until the cell enters mitosis. Significant protein synthesis occurs during this phase, mainly involving the production of microtubules, which are required during the process of mitosis. […]
Propidium iodide is an intercalating agent and a fluorescent molecule that can be used to stain DNA. […] After incubation for 40 min at 37° C., cells were analyzed in the FACS.

[3] = test system: Human Peripheral Blood Mononuclear Cells (PBMC); test: T cell proliferation assay (PHA, 3H-thymidine); format: cell-based; settings: test peptide 10 micrograms per ml
Protocol: (§1) Human Peripheral Blood Mononuclear Cells (PBMC) were obtained from normal human donors. The T cell proliferation was induced by stimulation of the cells with the T cell mitogen phytohemagglutinin (PHA), either in the absence (positive proliferation control), or in the presence of test peptide—10 micrograms per ml—to examine their effects on the T cell proliferating response. 10^5/well PBMC were plated in 96-well microtiter plates and assayed in duplicate with the peptide. Cell cultures were incubated at 37° C. for 3 days in a 5% CO2 incubator and were thereafter pulsed with 1 microCi/well ^3H-thymidine for additional 12 hours of culture. At the end of incubation time, the plates were harvested and the cells counted by liquid scintillation for the incorporation of ^3H-thymidine as a measure of T cell proliferation.

[4] = test system: Human Peripheral Blood Mononuclear Cells (PBMC); test: B cell proliferation assay (SAC plus Interleukin-2, 3H-thymidine); format: cell-based; settings: test peptide 10 micrograms per ml
Protocol: as §1, with “The B” for “The T”, “the B” for “the T”, “mitogen Staphylococcus aureus Cowans I (SAC) plus Interleukin-2,” for “mitogen phytohemagglutinin (PHA),”, “cell” for “cell proliferating”, “of B” for “of T”

RAW 264.7 cells = test: Phagocytosis assay (Fluorescein-labeled Escherichia coli); format: cell-based, mouse; settings: test peptide 10 micrograms per ml, flow cytometry
[5] = test system: Tumor Necrosis Factor-α (TNF-α); test: Th1/Th2 cytokine profiling assay: TNF-α; format: cell-based, Balb/c mice; settings: Ovalbumin-restimulated spleen cells; test peptide 10 micrograms per ml; 72 hours
From the text: (§2) The Balb/c mice (originated in 1923, it is a popular strain and is used in many different research disciplines. Also classified as an inbred from the production of 20 or more successive brother-sister matings, the Balb/c mouse is albino and small in size) were immunized on Days 1, 15, and 29 with Ovalbumin (Ovalbumin is the main protein found in egg white, commonly used to stimulate an immunological reaction in test animals) in PBS (5 micrograms/injection). On day 50, spleens of the mice were harvested (3 weeks after last boost with Ovalbumin). Cells were cultured (2×10^5/well in triplicate) and incubated with culture medium or test peptide—10 micrograms per ml—for 30 min. Thereafter, additional Ovalbumin was added to the cells at 10 micrograms/ml for in vitro restimulation of the cells. 72 hours later, cell supernatants were harvested and assayed using the Becton Dickinson Mouse Th1/Th2 Cytokine CBA Kit. This kit can be used to measure Interleukin-2 (IL-2), Interleukin-4 (IL-4), Interleukin-5 (IL-5), Interferon-γ (IFN-γ), and Tumor Necrosis Factor-α (TNF-α) protein levels in a single sample. The kit performance has been optimized for analysis of physiologically relevant concentrations ([…] levels) of specific cytokine proteins in tissue culture supernatants and serum samples.

Interferon-γ (IFN-γ) = test: Th1/Th2 cytokine profiling assay: IFN-γ; format: cell-based, Balb/c mice; settings: Ovalbumin-restimulated spleen cells; test peptide 10 micrograms per ml; 72 hours
From the text: as §2

Interleukin-2 (IL-2) = test: Th1/Th2 cytokine profiling assay: IL-2; format: cell-based, Balb/c mice; settings: Ovalbumin-restimulated spleen cells; test peptide 10 micrograms per ml; 72 hours
From the text: as §2

Interleukin-4 (IL-4) = test: Th1/Th2 cytokine profiling assay: IL-4; format: cell-based, Balb/c mice; settings: Ovalbumin-restimulated spleen cells; test peptide 10 micrograms per ml; 72 hours
From the text: as §2

Interleukin-5 (IL-5) = test: Th1/Th2 cytokine profiling assay: IL-5; format: cell-based, Balb/c mice; settings: Ovalbumin-restimulated spleen cells; test peptide 10 micrograms per ml; 72 hours
From the text: as §2

TNF alpha = TNF alpha production assay (LPS-stimulated macrophages, ELISA); format: cell-based; settings: human macrophages, test peptide 10 micrograms per ml, lipopolysaccharide 200 ng/ml, overnight
Protocol: Human Peripheral Blood Mononuclear Cells (PBMC) were obtained from normal human donors. The macrophages were prepared by adherence of PBMC to the plastic wells of the plates. After 8 days in culture in the presence of recombinant human macrophage-colony stimulating factor at 2 ng/ml, differentiated macrophages were preincubated with test peptide—10 micrograms per ml—for 30 min, followed by in-well stimulation by the addition of lipopolysaccharide at a final concentration of 200 ng/ml. Not stimulated macrophages served as negative background control.
After overnight incubation, supernatants from the control and LPS-stimulated cultures were harvested and assayed for TNF alpha production employing a TNF alpha specific ELISA.

[6] = test system: Primary Human endothelial cells (HUVEC); test: Endothelial cell migration assay; format: cell-based; settings: test peptide 10 micrograms per ml, 22 hours
Protocol: Endothelial cell migration is a prerequisite for the process of neo-vascularization or angiogenesis which is crucial for on-site recruitment of blood vessel formation. Primary Human endothelial cells (HUVEC) were seeded in insert chambers with 3 micrometer pore size of multi-transwell plate for 6 hours at 37° C. in Endothelial Cell Basal Medium (EBM) supplemented with 0.1% bovine serum albumin. Thereafter, designated concentration of test peptide—10 micrograms per ml—was added in duplicate wells. The endothelia were allowed to migrate for 22 hours at 37° C., then, migrated cells were fixed and stained with Hoechst 33342 dye. Images of 3 fields per insert were taken and the number of migrated cells per field were quantified using the ImageProPlus software. Data were analyzed for the average number of the migrated cells and standard deviation of six data points for each treatment condition. Active test peptide against HUVEC migration was determined based on 50% inhibition of migrated cells as compared with the control. Statistic p values were computed using the Student's t-test.

HUVEC = test: Endothelial tube formation assay; format: cell-based, human; settings: test peptide 10 micrograms per ml, 20 hours
Protocol: The endothelial tube formation assay is based on the ability of endothelial cells to form three-dimensional capillary-like tubular structures when cultured on a gel of basement membrane extract. The endothelial tube formation assay represents a powerful model for studying inhibition and induction of angiogenesis. Pre-labeled HUVEC with Calcein AM were seeded in a 96-well culture plate coated with extracellular metrix (Chemicon international Cat. ECM625) and treated with test peptide—10 micrograms per ml—in full growth medium. […] control was vehicle only. The endothelial cells were allowed to form tubes for 20 hours and were then examined under an inverted fluorescent microscope. Duplicate wells for each treatment were photographed and quantitatively analyzed for an average tubule length using image analysis software ImageProPlus. Raw data were expressed as average tubule lengths in pixels ±standard deviation. Statistic p values were computed using the Student's t-test.

[7] = Cytotoxicity in HIV-1 assay (MTS cell viability); settings: human, CEM-SS cells
[8] = Cytotoxicity in HCMV assay (CellTiter 96 cell viability); settings: human, MRC-5 cells (embryonal lung fibroblasts)

Cc1cn([C@H]2C[C@H](N=[N+]=[N-])[C@@H](CO)O2)c(=O)[nH]c1=O [AZT]
% CPE reduction in HIV-1 infected CEM-SS cells (HIV-1IIIB): 99%

CC(C)(C)NC(=O)[C@@H]1CN(Cc2cccnc2)CCN1C[C@@H](O)C[C@@H](Cc1ccccc1)C(=O)N[C@H]1c2ccccc2C[C@H]1O [Indinavir]
% CPE reduction in HIV-1 infected CEM-SS cells (HIV-1IIIB): 100%

CC(C)C[C@H](NC(=O)CNC(=O)[C@H](CCC(=O)O)NC(=O)CNC(=O)[C@H](C)N)C(=O)N[C@@H](CC(N)=O)C(=O)N[C@@H](CO)C(=O)N[C@@H](CCC(N)=O)C(=O)N[C@@H](Cc1ccccc1)C(=O)N[C@@H](Cc1c[nH]c2ccccc12)C(=O)N[C@@H](CO)C(=O)N[C@@H](CC(C)C)C(=O)N[C@@H](C)C(=O)N[C@@H](C)C(=O)N1CCC[C@H]1C(=O)N[C@@H](CCC(N)=O)C(=O)N[C@@H](CCCNC(=N)N)C(=O)N[C@@H](Cc1ccccc1)C(N)=O [Neuropeptide AF, Ala-Gly-Glu-Gly-Leu-Asn-Ser-Gln-Phe-Trp-Ser-Leu-Ala-Ala-Pro-Gln-Arg-Phe-NH2] (H-AGEGLNSQFWSLAAPQRF-NH2)
% CPE reduction in HIV-1 infected CEM-SS cells (HIV-1IIIB): 0.0% | % inhibition of HBV replication in HEP G2 cells [1]: 42.6% | viability at 144 h, 10 micrograms per ml [2]: 100% | % plaque reduction (HCMV strain AD169): 6.9% | % inhibition (MRSA): 0.0% | % inhibition (Pseudomonas aeruginosa): 0.0% | % inhibition (Streptococcus pneumoniae): 0.0% | Cell cycle analysis G0/G1 (A549 cells): 55.5 | Cell cycle analysis G2/M (A549 cells): 10.0 | Cell cycle analysis S (A549 cells): 34.5 | % of PHA induced control [3]: 103.8% | % of SAC/IL2 induced control [4]: 105.7% | % of control phagocytosis (RAW 264.7 cells): 105.9% | TNF-a spleen cells; TH1 response (% of control) [5]: 92.1 % of control | IFNγ spleen cells; TH1 response (% of control) (Interferon-γ (IFN-γ)): 84.8 % of control | IL-2 spleen cells (% of control) (Interleukin-2 (IL-2)): 0.0 % of control | IL-4 spleen cells; TH2 response (% of control) (Interleukin-4 (IL-4)): 0.0 % of control | IL-5 spleen cells; TH2 response (% of control) (Interleukin-5 (IL-5)): 52.2 % of control | % of LPS induction (TNF alpha): 104.7% | % inhibition of migration [6]: −4% | % inhibition of tube formation (HUVEC): −9% | viability at 10 micrograms per ml [7]: 81.6% | viability at 144 h [8]: 100%
